Laboratory results as given in the NIST ThermoML archive (doi:10.1016/j.jct.2018.06.026).
± gives the expanded uncertainty stated by the source.

How the values were obtained:
[1] = wn = mass fraction of the nth substance listed; settings: 100 kPa, Liquid, Vibrating tube method
[2] = refractive index (Na D-line) (dimensionless); wn = mass fraction of the nth substance listed; settings: 100 kPa, Liquid, Standard Abbe refractometry

With `[Cl-].[Na+]` [sodium chloride] + O the mass density ([1]; 293.15 K, w1 = 0.265) was 1200.01 ± 10 kg/m3, the mass density ([1]; 313.15 K, w1 = 0.2717) was 1181.06 ± 10 kg/m3 and the refractive index ([2]; 293.15 K, w1 = 0.265) was 1.38027 ± 0.002. The refractive index ([2]; 313.15 K, w1 = 0.2717) was 1.37386 ± 0.002.
